As usually defined, the IC50 is the concentration at which inhibition is half-maximal. For orientation: EC50 means the midpoint of the concentration-response curve. Read a high EC50 as lower potency in that assay.

Here are results for three compounds from US20050159345A1 (Boehringer Ingelheim International GmbH, priority 2002, published 2005).

Structures are written as SMILES. Read-outs that look alike come from different tables or passages of the source.

For experiment [1], the target named is T1, HCV 1b NS3-NS4A heterodimer protein (UniProt P26662).
T1 construct: fused on or other part: 28 extra N-terminal residues with a hexahistidine tag and an rTEV cleavage site
Nature of the experiment: In vitro HCV NS3 protease assay (fluorogenic depsipeptide), genotype 1b. Conditions: read-out: IC50 HCV-1b; HCV 1b NS3-NS4A protease. The class given is biochemical, HCV genotype 1b.
Source text: (§1) For production of the HCV genotype 1b NS3-NS4A heterodimer protein, a full-length HCV cDNA was cloned by RT-PCR using RNA extracted from the serum of an HCV genotype 1b infected individual (provided by Dr. Bernard Willems, Hôpital St-Luc, Montréal, Canada). […] For HCV genotype 1a, the DNA encoding NS3-NS4A heterodimer protein was PCR-amplified (forward primer: 5′[sequence]3′ (SEQ ID No.3); reverse primer: 5′[sequence]3′ (SEQ ID No.4)) from the HCV genotype la strain H77 (provided by ViroPharma Inc., Exton, Pa., U.S.) and subcloned as described above. The cloning into the pFastBac™ HTa baculovirus expression vector generated a recombinant fusion protein containing an additional N-terminal 28 residues that comprised a hexahistidine tag and a rTEV protease cleavage site. The Bac-to-Bac™ baculovirus expression system (Gibco/BRL) was used to produce the recombinant baculovirus for protein expression.
(§2) His-tagged NS3-NS4A heterodimer protease was expressed by infecting Sf21 insect cells (Invitrogen) at a density of 10^6 cells/mL with the recombinant baculovirus at a multiplicity of infection of 0.1-0.2 at 27° C. The infected culture was harvested 48 to 64 h later by centrifugation at 4° C. The cell pellet was homogenized in 50 mM sodium phosphate, pH 7.5, 40% glycerol (w/v), 2 mM β-mercaptoethanol. His-NS3-NS4A heterodimer protease was then extracted from the cell lysate with 1.5% NP-40, 0.5% Triton X-100, 0.5M NaCl, and a DNase treatment. […]
(§3) The fluorescence was monitored using the BMG POLARstar Galaxy 96-well plate reader with an excitation filter of 320 nm, and an emission filter of 405 nm. The level of inhibition (% inhibition) of each well containing test compound was calculated with the following equation (FU=fluorescence unit): [formula]
(§4) The calculated % inhibition values were then used to determine IC50, slope factor (n) and maximum inhibition (Imax) by the non-linear regression routine NLIN procedure of SAS using the following equation: [formula]

For experiment [2], the target named is T2, HCV 1a NS3-NS4A heterodimer protein (Hepatitis C virus genotype 1a, UniProt P27958).
T2 construct: Co-purification of mature NS3 and NS4A protein complex was verified by Western blot analysis; made in house; host or cells: Sf21 insect cells, recombinant baculovirus (pFastBac HTa)
Nature of the experiment: In vitro HCV NS3 protease assay (fluorogenic depsipeptide), genotype 1a. The class given is biochemical.
Source text: as §1, §2, §3, §4

Experiment [3] concerns the target T3, GBV-B NS3-NS4A heterodimer protein (Hepatitis GB virus B, UniProt Q69422).
T3 construct: The full length GBV-B NS3/NS4A protease gene was isolated from infected tamarin serum; made in house; host or cells: E. coli BL21 DE3 pLysS (pET-29)
Nature of the experiment: In vitro GBV-B NS3 protease assay (HPLC). The class given is biochemical.
Procedure: The depsipeptide substrate used to assess inhibition of the protease activity of GBV-B NS3-NS4A heterodimer protein was Ac-DED(EDANS)EE-Abu[C(O)—O] ASK(DABCYL)-NH2 (SEQ ID No. 16) This substrate is cleaved between the aminobutyric (Abu) and the alanine residues and products of the reaction were analyzed by HPLC. The protease activity was assayed in 50 mM Tris-HCl;, pH 8.0, 0.25M sodium citrate, 0.01 % n-dodecyl-β-D-maltoside, 1 mM TCEP. The assay was performed in a Microfluor®2 White U-Bottom Microtiter® plate. 5 μM of the substrate and various concentrations of the test compounds were incubated with 0.4 nM of GBV-B NS3-NS4A heterodimer protein for 2 hours at 23° C. under gentle agitation. […] The reaction was terminated by the addition of a 1M 2-[N-morpholino]ethanesulfonic acid solution at pH 5.8. For quantification, the cleavage products and the substrate were separated by HPLC on a Perkin-Elmer® 3×3CR C8 column. The separation was accomplished by initially eluting at 3.5 mL/min with an aqueous solution containing 0.05% phosphoric acid and 3 mM SDS. A 0 to 45% acetonitrile linear gradient in 0.05% phosphoric acid was then applied for 10 minutes. The absorbance was monitored at 210 nm.

A further experiment has as its system HCV replicon 1a. Nature of the experiment: Cell-based HCV 1a RNA replicon assay. Particulars: Hepatitis C virus, 72 h; Huh-7-derived replicon cells, 3 day incubation, HCV RNA by RT-PCR. The protocol:
These cells were used to establish a sensitive HCV RNA replication cell-based assay for testing candidate test compounds.
Huh7 cells that stably maintain a subgenomic HCV replicon were established as previously described (Lohman et al. 1999; WO 02/052015). The cells were seeded into a 96 well cell culture cluster at 1×10^4 cells per well in DMEM complemented with 10% FBS, PenStrep (Life Technologies) and […] Geneticin. Cells were incubated in a 5% CO2 incubator at 37° C. until addition of various concentrations of the test compound.
The test compound was prepared for use in the assay as follows. The test compound in 100% DMSO was added diluted in assay Medium for a final DMSO concentration of 0.5% and the solution was sonicated for 15 min and filtered through a […] Millipore Filter Unit. Serial dilutions of the test compounds were prepared using Assay Medium (containing 0.5% DMSO).
Cell culture medium was aspirated from the 96-well plate containing the cells and the appropriate dilution of test compound in assay medium was transferred to independent wells of the cell culture plate which was incubated at 37° with 5% CO2.
Following a 3 day-incubation period, the cells were washed with PBS and total cellular RNA was extracted with the RNeasy Mini Kit® and Qiashredder® from Qiagen. RNA from each well was eluted in 50 μL of H2O. RNA was quantified by optical density at 260 nm on the Cary 1E® UV-Visible spectrophotometer. The HCV RNA replicon copy number was evaluated by real-time RT-PCR with the Abi Prism® 7700 Sequence Detection System. The TAQMAN E® RT-PCR kit provides a system for the detection and analysis of RNA. Direct detection of the reverse transcription polymerase chain reaction (RT-PCR) product with no downstream processing was accomplished by monitoring the increase in fluorescence of a dye-labeled DNA probe. The nucleotide sequence of both primers and probe was located in the 5′ region of the HCV genome. The replicon copy number was then evaluated using a standard curve made with known amounts of replicon copy (supplemented with 50 ng of wild type Huh-7 RNA) assayed in the same reaction mix. The following thermal cycle parameters were used for the RT-PCR reaction on the ABI Prism® 7700 Sequence Detection System. Conditions were optimized for HCV detection. Quantification is based on the threshold cycle, where the amplification plot crosses a defined fluorescence threshold. Comparison of the threshold cycles provides a highly sensitive measure of relative template concentration in different samples. Monitoring during early cycles, when PCR fidelity is at its highest, provides precise data for accurate quantification. The relative template concentration can be converted to real numbers by using the standard curve of HCV with known number of copy.
The level of inhibition (% inhibition) of each well containing test compound was calculated with the following equation (CN═HCV Replicon copy number): [formula]
The calculated % inhibition values were then used to determine EC50, slope factor (n) and maximum inhibition (Imax) by the non-linear regression routine NLIN procedure of SAS using the following equation: [formula]

The mark [4] stands for this setting: HCV 1a NS3-NS4A protease, read-out: IC50 HCV-1a.

T1 sequence (P26662 1027-1657, one chain of several): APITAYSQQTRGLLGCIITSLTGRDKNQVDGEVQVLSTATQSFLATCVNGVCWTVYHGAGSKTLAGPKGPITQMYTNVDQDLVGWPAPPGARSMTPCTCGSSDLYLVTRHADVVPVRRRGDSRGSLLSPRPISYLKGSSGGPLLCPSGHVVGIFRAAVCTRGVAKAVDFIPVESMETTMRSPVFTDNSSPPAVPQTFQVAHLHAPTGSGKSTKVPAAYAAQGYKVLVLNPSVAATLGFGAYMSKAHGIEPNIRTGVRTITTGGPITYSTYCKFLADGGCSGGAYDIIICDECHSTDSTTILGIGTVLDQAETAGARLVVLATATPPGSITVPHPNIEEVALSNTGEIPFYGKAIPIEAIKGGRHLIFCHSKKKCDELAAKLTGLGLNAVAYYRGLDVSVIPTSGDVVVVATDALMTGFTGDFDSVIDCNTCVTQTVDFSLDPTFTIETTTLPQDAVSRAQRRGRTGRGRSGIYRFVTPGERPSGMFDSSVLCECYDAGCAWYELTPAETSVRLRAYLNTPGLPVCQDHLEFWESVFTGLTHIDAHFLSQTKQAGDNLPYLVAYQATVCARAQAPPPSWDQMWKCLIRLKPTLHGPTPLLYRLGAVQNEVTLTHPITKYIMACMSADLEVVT
T3 sequence (Q69422 1565-1615): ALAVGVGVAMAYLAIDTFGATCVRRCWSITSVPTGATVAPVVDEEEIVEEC
T3 sequence (Q69422 941-1564): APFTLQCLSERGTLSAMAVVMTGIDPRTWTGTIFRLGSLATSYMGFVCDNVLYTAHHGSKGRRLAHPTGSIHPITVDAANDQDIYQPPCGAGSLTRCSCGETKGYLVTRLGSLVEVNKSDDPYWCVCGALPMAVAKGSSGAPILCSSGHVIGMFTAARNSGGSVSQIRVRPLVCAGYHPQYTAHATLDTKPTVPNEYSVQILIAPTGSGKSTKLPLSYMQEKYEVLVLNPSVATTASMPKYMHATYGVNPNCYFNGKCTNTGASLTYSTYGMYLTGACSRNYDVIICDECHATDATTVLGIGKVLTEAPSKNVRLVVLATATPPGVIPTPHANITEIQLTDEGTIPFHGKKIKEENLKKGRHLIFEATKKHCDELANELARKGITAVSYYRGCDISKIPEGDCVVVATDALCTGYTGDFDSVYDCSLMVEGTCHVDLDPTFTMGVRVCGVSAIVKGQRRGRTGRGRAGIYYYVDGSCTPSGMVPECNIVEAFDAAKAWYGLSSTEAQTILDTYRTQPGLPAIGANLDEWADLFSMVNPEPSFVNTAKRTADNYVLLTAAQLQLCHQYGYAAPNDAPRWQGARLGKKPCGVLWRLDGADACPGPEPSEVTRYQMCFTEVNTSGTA
T2 sequence (P27958 1027-1657): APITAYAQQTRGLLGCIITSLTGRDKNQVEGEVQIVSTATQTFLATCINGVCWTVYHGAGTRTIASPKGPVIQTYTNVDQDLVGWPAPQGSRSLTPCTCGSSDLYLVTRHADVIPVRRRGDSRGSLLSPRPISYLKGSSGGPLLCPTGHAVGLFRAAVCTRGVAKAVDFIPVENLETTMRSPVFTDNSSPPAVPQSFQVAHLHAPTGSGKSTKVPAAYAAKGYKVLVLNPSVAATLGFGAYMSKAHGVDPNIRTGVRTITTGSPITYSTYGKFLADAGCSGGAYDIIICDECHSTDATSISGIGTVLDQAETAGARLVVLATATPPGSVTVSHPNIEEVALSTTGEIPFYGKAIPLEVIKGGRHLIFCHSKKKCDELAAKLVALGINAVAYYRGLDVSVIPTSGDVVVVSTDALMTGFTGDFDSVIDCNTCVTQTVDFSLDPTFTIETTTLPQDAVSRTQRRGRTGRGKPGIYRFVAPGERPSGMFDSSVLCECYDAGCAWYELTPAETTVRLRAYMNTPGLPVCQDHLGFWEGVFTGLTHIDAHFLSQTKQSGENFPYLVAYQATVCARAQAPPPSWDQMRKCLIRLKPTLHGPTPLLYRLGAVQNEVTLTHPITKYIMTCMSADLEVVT
T2 sequence (P27958 1658-1711): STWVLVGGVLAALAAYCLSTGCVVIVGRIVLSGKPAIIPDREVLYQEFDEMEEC

Turning to `COc1ccc2c(O[C@@H]3C[C@H]4C(=O)N[C@]5(C(=O)O)CC5/C=C\CCCCC[C@H](NC(=O)OC5CCCC5)C(=O)N4C3)cc(-c3csc(NC(C)C)n3)nc2c1` (stereo partly drawn) [IV], the IC50 in experiment [1] is 3.4 nM; in experiment [2], 4.3 nM; in experiment [3], 16000 nM. For the same compound, the concentration giving a half-maximal response (EC50) in the experiment with HCV replicon 1a was 2.1 nM.

Take `COc1ccc2c(O[C@@H]3C[C@H]4C(=O)N[C@]5(C(=O)O)CC5/C=C\CCCCC[C@H](NC(=O)OC(C)(C)C)C(=O)N4C3)cc(-c3csc(NC(C)=O)n3)nc2c1` (stereo partly drawn) [III]: the figures for the IC50 in experiment [1], in experiment [2] (setting [4]) and in experiment [3] were 4.2 nM, 4.1 nM and 31000 nM, respectively. Further, in the experiment with HCV replicon 1a, the EC50 turned out to be 4.5 nM.

For `COc1ccc2c(O[C@@H]3C[C@H]4C(=O)N[C@]5(C(=O)O)CC5/C=C\CCCCC[C@H](NC(=O)OC(C)(C)C)C(=O)N4C3)cc(-c3ccccc3)nc2c1` (stereo partly drawn) [II], the IC50 in experiment [1] was 8.9 nM; in experiment [2] (setting [4]), 7.8 nM; in experiment [3] it was 36500 nM. For the same compound, the EC50 in the experiment on HCV replicon 1a is 34 nM.
